Reference: patent US9226902B2, “Stabilized transdermal drug delivery system” (Mylan Technologies Inc., priority 2008, dated 2016)

Assay: Glass transition temperature (DSC)
Type: physicochemical
Settings: amorphous form
Protocol: The glass transition temperature of undispersed amorphous scopolamine is about 10° C.

CN1[C@@H]2C[C@@H](OC(=O)[C@H](CO)c3ccccc3)C[C@H]1[C@@H]1O[C@@H]12 [undispersed amorphous scopolamine, scopolamine]
glass transition temperature (Tg): about 10 °C
